# Data as given in patent publication US12180207B2 (ARRAY BIOPHARMA INC., priority 2018, dated 2024).
# Key:
# [1] = target: dephosphorylated FGFR1 (SEQ ID NO: 1, amino acids 458 to 765) (Homo sapiens (Human), UniProt P11362); experiment: FGFR enzyme binding assay (HTRF tracer displacement), FGFR1; details: 5 nM dephosphorylated FGFR1, average of multiple determinations if made
# Method: (§1) The potency of compounds inhibiting human isoforms of FGFR kinase was determined using Life Technologies' Homogeneous Time Resolved Fluorescence (HTRF)-based binding assay technology. […] After a 60 minute incubation at 22° C., the extent of tracer displacement was determined using a PerkinElmer EnVision multimode plate reader via HTRF dual wavelength detection, and the percent of control (POC) was calculated using a ratiometric emission factor. One hundred POC was determined using no test compound, and 0 POC was determined in the presence of 1 μM of an appropriate control inhibitor.
# [2] = target: FGFR1 (SEQ ID NO: 1, amino acids 458-765) (Homo sapiens (Human), UniProt P11362); experiment: LC/MS FGFR1 kobs assay (covalent protein modification); type: binding; details: 500 nM FGFR1, 3 μM compound
# Sequence of FGFR1 (SEQ ID NO: 1, amino acids 458-765) (P11362 458-765): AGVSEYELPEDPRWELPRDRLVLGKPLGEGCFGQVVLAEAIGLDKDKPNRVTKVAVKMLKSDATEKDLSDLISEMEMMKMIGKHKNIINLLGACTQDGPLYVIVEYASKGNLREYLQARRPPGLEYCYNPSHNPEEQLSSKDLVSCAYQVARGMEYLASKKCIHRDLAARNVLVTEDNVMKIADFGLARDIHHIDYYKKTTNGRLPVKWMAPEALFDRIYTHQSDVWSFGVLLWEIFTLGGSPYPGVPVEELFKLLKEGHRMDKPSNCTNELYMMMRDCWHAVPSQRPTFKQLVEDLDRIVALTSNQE
# Method: (§2) The LC/MS FGFR1 and FGFR3 kobs assays were conducted as follows. […] At each time point, the reaction was quenched with 20 μL of 0.4% formic acid. The extent of protein modification by each compound was determined by LC/MS on an Agilent Technologies 6520 Q-TOF LC/MS. Protein signals were then automatically deconvoluted using Agilent Masshunter software. Deconvoluted mass signals were exported to Tibco Spotfire data analysis program for further processing and normalization.
# (§3) Data analysis included five steps. First, the signals for the “DMSO Controls” were analyzed to determine the percent of signal associated with unmodified FGFR1 or FGFR3 at each time point. Next, the percent of the signal associated with the covalent modification was determined. Third, the average nonmodified “DMSO Control” signal was used to normalize the modified protein signals at each time point. The percent of unmodified protein was fit to an exponential decay model where A0 is the Percent Unmodified at the start of the reaction, and kobs is the observed rate constant over the time period.
# [3] = target: FGFR3 (SEQ ID NO: 5, amino acids 449-759) (Homo sapiens (Human), UniProt P22607); experiment: LC/MS FGFR3 kobs assay (covalent protein modification); type: binding; details: 500 nM FGFR3, 3 μM compound
# Sequence of FGFR3 (SEQ ID NO: 5, amino acids 449-759) (P22607 449-759): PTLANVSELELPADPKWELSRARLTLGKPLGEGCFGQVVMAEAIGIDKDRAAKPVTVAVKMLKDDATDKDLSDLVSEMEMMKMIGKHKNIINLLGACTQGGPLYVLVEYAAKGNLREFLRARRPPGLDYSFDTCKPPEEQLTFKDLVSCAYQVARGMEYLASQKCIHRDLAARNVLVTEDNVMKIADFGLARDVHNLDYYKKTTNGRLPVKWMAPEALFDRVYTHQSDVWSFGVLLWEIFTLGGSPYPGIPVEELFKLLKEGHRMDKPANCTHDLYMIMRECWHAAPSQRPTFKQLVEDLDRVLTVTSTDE
# Method: as §2, §3
# Table EC contains kobs values for compounds tested in these assays, presented as the average of multiple determinations if multiple determinations were made. ND=not determined.
# [4] = target: phosphorylated FGFR3 (SEQ ID NO: 5, amino acids 449 to 759) (Homo sapiens (Human), UniProt P22607); experiment: FGFR enzyme binding assay (HTRF tracer displacement), FGFR3; details: 5 nM phosphorylated FGFR3, average of multiple determinations if made
# Sequence of phosphorylated FGFR3 (SEQ ID NO: 5, amino acids 449 to 759) (P22607 449-759): as above
# Method: as §1
# [5] = target: recombinant human FGFR2 cytoplasmic domain (amino acids 403-822) (Homo sapiens (Human), UniProt P21802); experiment: FGFR2 enzyme activity assay (LanthaScreen TR-FRET); type: biochemical; details: 15 μM ATP, 20 min incubation at 22° C., average of multiple determinations if made, read-out: FGFR2 Enz FRET IC50
# Sequence of recombinant human FGFR2 cytoplasmic domain (amino acids 403-822) (P21802 402-821): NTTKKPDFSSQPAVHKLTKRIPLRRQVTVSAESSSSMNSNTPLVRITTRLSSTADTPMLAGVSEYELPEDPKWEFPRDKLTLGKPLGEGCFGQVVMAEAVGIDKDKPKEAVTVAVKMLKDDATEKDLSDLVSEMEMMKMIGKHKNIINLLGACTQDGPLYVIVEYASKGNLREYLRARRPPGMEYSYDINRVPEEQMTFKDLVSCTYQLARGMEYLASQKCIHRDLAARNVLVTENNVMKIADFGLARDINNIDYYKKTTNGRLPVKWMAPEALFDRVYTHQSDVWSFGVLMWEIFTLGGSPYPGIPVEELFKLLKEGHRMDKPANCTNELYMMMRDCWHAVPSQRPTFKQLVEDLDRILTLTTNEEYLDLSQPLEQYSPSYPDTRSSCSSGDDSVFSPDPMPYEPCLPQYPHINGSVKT
# Method: FGFR2 kinase activity was measured by the Invitrogen LanthaScreen™ Assay technology which directly measures the amount of substrate phosphorylation by TR-FRET using a fluorescently-labeled peptide and Europium-labeled antibody. Briefly, […] His-tagged recombinant human FGFR2 cytoplasmic domain (amino acids 403-822) (Life Technologies Cat. No. PR5332A) was incubated with 100 nM Alexa Fluor® 647-Poly-GT Peptide Substrate (Life Technologies Cat. No. PV5836) and 15 μM ATP along with test compound in a buffer consisting of 250 mM HEPES, 25 mM MgCl2, 0.05% TritonX-100, pH 7.5, and 2% DMSO. […] After a 20 minute incubation at 22° C., an equal volume of 2 nM LanthaScreen® Eu-PY20 Antibody (Life Technologies Cat. No. PV5691) and 10 mM EDTA were added to quench the kinase reaction and start the detection reaction. After an additional 60 minute incubation at 22° C., the reaction was measured using a PerkinElmer EnVision multimode plate reader via TR-FRET dual wavelength detection, and the percent of control (POC) calculated using a ratiometric emission factor. 100 POC was determined using no test compounds and 0 POC was determined using no enzyme. The POC values were fit to a 4-parameter logistic curve as a function of the concentration of the compound, and the IC50 value is the point where the curve crosses 50 POC.
# [6] = target: recombinant human FGFR1 catalytic domain (amino acids 308-731) (Homo sapiens (Human), UniProt P11362); experiment: FGFR1 enzyme activity assay (LanthaScreen TR-FRET); type: biochemical; details: 20 min incubation at 22° C., average of multiple determinations if made, read-out: FGFR1 Enz FRET IC50
# Sequence of recombinant human FGFR1 catalytic domain (amino acids 308-731) (P11362 other isoform, or with tags, fused parts or gaps): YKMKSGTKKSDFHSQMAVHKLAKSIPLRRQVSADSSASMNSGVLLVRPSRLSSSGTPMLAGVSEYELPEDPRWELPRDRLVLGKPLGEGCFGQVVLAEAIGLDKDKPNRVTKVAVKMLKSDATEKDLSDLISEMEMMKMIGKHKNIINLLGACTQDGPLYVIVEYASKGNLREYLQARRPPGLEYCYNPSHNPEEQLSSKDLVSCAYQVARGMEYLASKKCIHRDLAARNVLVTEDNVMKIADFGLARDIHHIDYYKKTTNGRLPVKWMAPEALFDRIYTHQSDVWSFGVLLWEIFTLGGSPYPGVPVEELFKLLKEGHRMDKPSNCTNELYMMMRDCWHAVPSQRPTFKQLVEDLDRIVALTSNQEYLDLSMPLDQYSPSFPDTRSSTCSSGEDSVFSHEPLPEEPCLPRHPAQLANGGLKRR
# Method: FGFR1 kinase activity was measured by the Invitrogen LanthaScreen™ Assay technology which directly measures the amount of substrate phosphorylation by Time-resolved fluorescence energy transfer (TR-FRET) using a fluorescently-labeled peptide and Europium-labeled antibody. Briefly, […] His-tagged recombinant human FGFR1 catalytic domain (amino acids 308-731) (Life Technologies Cat. No. PR4660A) was incubated with 100 nM Alexa Fluor® 647-Poly-GT Peptide Substrate (Life Technologies Cat. No. PV5836) and […] ATP along with test compound in a buffer consisting of 250 mM HEPES, 25 mM MgCl2, 0.05% TritonX-100, pH 7.5, and 2% DMSO. […] After a 20 minutes incubation at 22° C., an equal volume of 2 nM LanthaScreen® Eu-PY20 Antibody (Life Technologies Cat. No. PV5691) and 10 mM EDTA was added to quench the kinase reaction and start the detection reaction. After an additional 60 minute incubation at 22° C., the reaction was measured using a PerkinElmer EnVision multimode plate reader via TR-FRET dual wavelength detection, and the percent of control (POC) calculated using a ratiometric emission factor. 100 POC was determined using no test compounds and 0 POC was determined using no enzyme. The POC values were fit to a 4-parameter logistic curve as a function of the concentration of the compound, and the IC50 value is the point where the curve crosses 50 POC.
# [7] = target: recombinant human FGFR3 (amino acids R397-T806) (Homo sapiens (Human), UniProt P22607); experiment: FGFR3 enzyme activity assay (LanthaScreen TR-FRET); type: biochemical; details: 25 μM ATP, 10 min incubation at 22° C., average of multiple determinations if made, read-out: FGFR3 Enz FRET IC50
# Sequence of recombinant human FGFR3 (amino acids R397-T806) (P22607 397-806): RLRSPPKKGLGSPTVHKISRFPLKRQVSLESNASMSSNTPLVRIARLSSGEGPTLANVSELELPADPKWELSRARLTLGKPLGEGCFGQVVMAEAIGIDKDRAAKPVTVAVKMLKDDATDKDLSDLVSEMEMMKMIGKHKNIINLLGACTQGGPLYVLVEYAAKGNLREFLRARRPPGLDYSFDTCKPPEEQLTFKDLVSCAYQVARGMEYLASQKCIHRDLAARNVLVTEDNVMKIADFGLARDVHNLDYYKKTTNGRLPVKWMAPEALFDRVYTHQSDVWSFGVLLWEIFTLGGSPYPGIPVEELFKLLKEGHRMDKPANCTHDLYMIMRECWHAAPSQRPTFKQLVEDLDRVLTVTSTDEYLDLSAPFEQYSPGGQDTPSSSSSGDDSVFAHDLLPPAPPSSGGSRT
# Method: FGFR3 kinase activity was measured by the Invitrogen LanthaScreen™ Assay technology which directly measures the amount of substrate phosphorylation by TR-FRET using a fluorescently-labeled peptide and Europium-labeled antibody. Briefly, […] N-terminal GST-HIS6 fusion protein with a 3C cleavage site recombinant human FGFR3 (amino acids R397-T806) (ProQinase Cat. No. 1068-0000-1) was incubated with 100 nM Alexa Fluor® 647-Poly-GT Peptide Substrate (Life Technologies Cat. No. PV5836) and 25 μM ATP along with test compound in a buffer consisting of 250 mM HEPES, 25 mM MgCl2, 0.05% TritonX-100, pH 7.5, and 2% DMSO. […] After a 10 minute incubation at 22° C., an equal volume of 2 nM LanthaScreen® Eu-PY20 Antibody (Life Technologies Cat. No. PV5691) and 10 mM EDTA were added to quench the kinase reaction and start the detection reaction. After an additional 60 minute incubation at 22° C., the reaction was measured using a PerkinElmer EnVision multimode plate reader via TR-FRET dual wavelength detection, and the percent of control (POC) calculated using a ratiometric emission factor. 100 POC was determined using no test compounds and 0 POC was determined using no enzyme. The POC values were fit to a 4-parameter logistic curve as a function of the concentration of the compound, and the IC50 value is the point where the curve crosses 50 POC.
# Sequence of dephosphorylated FGFR1 (SEQ ID NO: 1, amino acids 458 to 765) (P11362 458-765): as the sequence (P11362 458-765) above
IC50 [1] [nM],FGFR1 Enz kobs [2] [min⁻¹],FGFR3 Enz kobs [3] [min⁻¹],IC50 [4] [nM],IC50 [5] [nM],IC50 [6] [nM],IC50 [7] [nM],Structure (SMILES)
129,0.00032,0.00177,48,15,61,14,"C=CC(=O)N1CCC(NC(=O)c2ccc(-c3cc(OC)c4c(C#N)cnn4c3)cc2)CC1 [Example 166, N-(1-acryloylpiperidin-4-yl)-4-(3-cyano-4-methoxypyrazolo [1,5-a]pyridin-6-yl)benzamide]"
199,0.0005,0.0013,62,7,26,3,"C=CC(=O)N1CCC[C@H](C(=O)N2CC[C@H](n3cc(-c4cc(OC)c5c(C#N)cnn5c4)cn3)C2)C1 [Example 63, 6-(1-((S)-1-((S)-1-acryloylpiperidine-3-carbonyl)pyrrolidin-3-yl)-1H-pyrazol-4-yl)-4-methoxypyrazolo[1,5-a]pyridine-3-carbonitrile]"
177,0.00093,0.00501,22,5,35,4,"C=CC(=O)N1CC2(CC(C(=O)N3CCC(n4cc(-c5cc(OC)c6c(C#N)cnn6c5)cn4)CC3)C2)C1 [Example 47, 6-(1-(1-(2-acryloyl-2-azaspiro[3.3]heptane-6-carbonyl)piperidin-4-yl)-1H-pyrazol-4-yl)-4-methoxypyrazolo[1,5-a]pyridine-3-carbonitrile]"
104,0.00047,0.00281,11,–,13,4,"CC#CC(=O)N1CC(C(=O)N2CCC(n3cc(-c4cc(OC)c5c(C#N)cnn5c4)cn3)CC2)C1 [Example 139, 6-(1-(1-(1-(but-2-ynoyl)azetidine-3-carbonyl)piperidin-4-yl)-1H-pyrazol-4-yl)-4-methoxypyrazolo [1,5-a]pyridine-3-carbonitrile]"
346,–,0.00064,61,6,28,5,"C=CC(=O)N[C@H]1C[C@@H](C(=O)N2CC[C@@H](n3cc(-c4cc(OC)c5c(C#N)cnn5c4)cn3)C2)C1 [Example 61, N-((1S,3s)-3-((R)-3-(4-(3-cyano-4-methoxypyrazolo[1,5-a]pyridin-6-yl)-1H-pyrazol-1-yl)pyrrolidine-1-carbonyl)cyclobutyl)acryl-amide]"
142,–,0.00025,25,16,47,16,"C=CC(=O)N[C@H]1CC[C@H](C(=O)N2CC[C@@H](n3cc(-c4cc(OC)c5c(C#N)cnn5c4)cn3)C2)CC1 [Example 54, N-((1R,4r)-4-((R)-3-(4-(3-cyano-4-methoxypyrazolo[1,5-a]pyridin-6-yl)-1H-pyrazol-1-yl)pyrrolidine-1-carbonyl)cyclohexyl)acryl-amide]"
177,–,0.0002,56,6,26,3,"C=CC(=O)N[C@H]1CC[C@H](C(=O)N2CC[C@H](n3cc(-c4cc(OC)c5c(C#N)cnn5c4)cn3)C2)CC1 [Example 65, N-((1S,4r)-4-((S)-3-(4-(3-cyano-4-methoxypyrazolo[1,5-a]pyridin-6-yl)-1H-pyrazol-1-yl)pyrrolidine-1-carbonyl)cyclohexyl)acryl-amide]"
552,–,0.0007,128,42,188,58,"C=CC(=O)N1CCC(Oc2cccc(-n3cc(-c4cc(OC)c5c(C#N)cnn5c4)cn3)c2)CC1 [Example 26, 6-(1-(3-((1-acryloylpiperidin-4-yl)oxy)phenyl)-1H-pyrazol-4-yl)-4-methoxypyrazolo[1,5-a]pyridine-3-carbonitrile]"
